Here are results for nine compounds from article PMC4491109, “Synthesis and anticonvulsant activity of new N-phenyl-2-(4-phenylpiperazin-1-yl)acetamide derivatives” (Medicinal Chemistry Research, 2015).

Common to all, as to type: in vivo
Data set [1] concerns pentylenetetrazole-induced seizures. In words: Subcutaneous pentylenetetrazole (scPTZ) test, i.p. administration in mice. To be noted: Mus musculus, ip, doses of 30, 100 or 300 mg/kg. How it is done: (§1) Considering the aforementioned facts, the profile of anticonvulsant activity of final compounds 3–24 was established in the MES and scPTZ tests, after intraperitoneal (i.p.) injection in mice at doses of 30, 100 and 300 mg/kg. An observation was carried out at two different time intervals—0.5 and 4 h. Furthermore, in addition to the primary anticonvulsant screening, the acute neurological toxicity (NT) was determined in mice by the rotarod test.
(§2) Compounds 3–24 were pharmacologically preevaluated within the Antiepileptic Drug Development (ADD) Program in Epilepsy Branch, Neurological Disorders Program, National Institute of the Neurological and Communicative Disorders and Stroke (NIH/NINDS), Rockville, MD, USA, by using procedures described elsewhere (Krall et al., [1978]; Kupferberg, [1989]).
(§3) Phase I of the in vivo studies involved three tests: MES, scPTZ and rotarod test for NT. Male albino mice (CF#1 strain, weighing 18–25 g) and male albino rats (Sprague–Dawley) were used as experimental animals. The animals were housed in metabolic cages and allowed free access to food and water. The compounds were injected intraperitoneally to mice as a suspension in 0.5 % methylcellulose/water mixture at a dose level 30, 100 or 300 mg/kg with anticonvulsant activity and neurotoxicity assessment at 0.5 and 4 h after administration. Promising derivatives from phase I underwent phase VIa in which they were administrated orally into rats at a fixed dose of 30 mg/kg for both MES and the rotarod toxicity determination at five pretreatment times: 0.25, 0.5, 1, 2, 4 h. Groups of eight mice or four rats are employed.
The scPTZ test utilizes a dose of pentylenetetrazole (85 mg/kg in mice) that produces clonic seizures lasting for a period of at least 5 s in 97 % (CD97) of animals tested. PTZ is administered 0.5 and 4 h after injections of tested compounds, and observation is carried out for 30 min. In the control groups, the first episode of clonic convulsions is observed between 6 and 15 min of observation. The absence of clonic convulsions in the observed time period of […] is interpreted as the compound’s ability to protect against PTZ-induced seizures.

For data set [2], the system named is maximal electroshock (MES) seizures. In words: Maximal electroshock (MES) test, i.p. administration in mice. To be noted: Mus musculus, ip, doses of 30, 100 or 300 mg/kg. How it is done: as §1, §2, §3
In the MES screen, an electrical stimulus of 0.2 s in duration (50 mA in mice and 150 mA in rats) is delivered via corneal electrodes primed with an electrolyte solution containing an anesthetic agent. The endpoint is the tonic extension of the hind limbs. In the control groups, the procedures cause immediate hind limb tonic extension. Mice not displaying hind limb tonic extension are considered to be protected from seizures.
Background: Protection in the maximal electroshock model is a classic sign of anticonvulsant action.

The test system of a further data set is mice (rotarod test). In words: Neurotoxicity screening (NT), rotarod test, i.p. administration in mice. To be noted: for dose showing neurotoxicity in the rotarod test (NT): ip. How it is done: as §1, §3
The neurological toxicity test (NT) induced by a compound was detected in mice or rats using standardized rotarod test (Dunham and Miya, [1957]). Untreated control mice or rats, when placed on the rod, can maintained their equilibrium for a prolonged time period.
A general note: In the rotarod test animals must keep their balance on a rotating rod.

The subject of data set [3] is 6-Hz psychomotor seizures. Briefly: Psychomotor seizure test (6-Hz), i.p. in mice. The settings on record: 100 mg/kg; for 6-Hz, number of mice protected/number of mice tested, 0.25 h / 6-Hz, number of mice protected/number of mice tested, 0.5 h / 6-Hz, number of mice protected/number of mice tested, 1 h / 6-Hz, number of mice protected/number of mice tested, 2 h / 6-Hz, number of mice protected/number of mice tested, 4 h: current 32 mA. The source says: In the next step of pharmacological investigations, four compounds 12, 19, 20 and 24 were chosen for the evaluation of anticonvulsant activity in the psychomotor 6-Hz test (Table 4). The selection was made randomly as a part of the search of molecules providing anti-6-Hz protection among chemically diversified compounds pursued in the NIH/NINDS. It should be noticed that 6-Hz screen has been validated as a model of therapy-resistant epilepsy (Barton et al., [2001]).
The 6-Hz model is an alternative electroshock paradigm that uses low-frequency (6 Hz), long-duration (3 s) electrical stimulation. Corneal stimulation (0.2 ms duration monopolar rectangular pulses at 6-Hz for 3 s) was delivered by a constant-current device. During the stimulation, mice were manually restrained and released into the observation cage immediately after the current application. The seizures manifest in “stunned” posture associated with rearing, forelimb, automatic movements and clonus, twitching the vibrissae and Straub–tail. The duration of the seizure activity ranges from 60 to 120 s in untreated animals. At the end of the seizure, animals resume their normal exploratory behavior. The experimental end point is protection against the seizure. The animal is considered to be protected if it resumes its normal exploratory behavior within 10 s from the stimulation (Brown et al., [1953]).

The mark [4] stands for this setting: 0.5 h, read-out: scPTZ, minimum dose effective in half or more animals tested, 0.5 h.
Setting [5] is: 4 h, read-out: scPTZ, minimum dose effective in half or more animals tested, 4 h.
[6] abbreviates: 0.5 h, read-out: MES, minimum dose effective in half or more animals tested, 0.5 h.
[7] abbreviates: 4 h, read-out: MES, minimum dose effective in half or more animals tested, 4 h.

SMILES strings stand for the structures. Like-named read-outs stand apart in the source and are kept apart here.

For `Cl.Cl.O=C(CN1CCN(Cc2ccccc2)CC1)Nc1cccc(Cl)c1` [Compound 11, 2-(4-Benzylpiperazin-1-yl)-N-(3-chlorophenyl)acetamide dihydrochloride], the minimal effective dose in data set [1] (setting [4]), in data set [1] (setting [5]), in data set [2] (setting [6]) and in data set [2] (setting [7]) was greater than 300 mg/kg each time. The “NT (rotarod), minimum dose neurotoxic in half or more animals tested, 0.5 h” value (from here on “NT (rotarod), minimum dose neurotoxic … 0.5 h”) in the data set on mice (rotarod test) (male, CF#1, mouse, in vivo) turned out to be 300 mg/kg. For the same compound, in the data set on mice (rotarod test) (male, CF#1, mouse, in vivo), the “dose showing neurotoxicity in the rotarod test (NT)” value (“dose showing neurotoxicity” for short) is given as 300 mg/kg.
Turning to `CN1CCN(CC(=O)Nc2cccc(Cl)c2)CC1.Cl.Cl` [Compound 12, N-(3-chlorophenyl)-2-(4-methylpiperazin-1-yl)acetamide dihydrochloride], in data set [3], the “6-Hz, % of animals protected, 0.25 h” value is given as 75%; the “6-Hz, % of animals protected, 0.5 h” value was 75%; the “6-Hz, number of mice protected/number of mice tested, 0.25 h” value is listed as 3/4; the “6-Hz, number of mice protected/number of mice tested, 0.5 h” value is 3/4. Further, the “6-Hz, number of mice protected/number of mice tested, 2 h” value in data set [3] is reported as 0/4. Moreover, the “6-Hz, number of mice protected/number of mice tested, 1 h” value in data set [3] (1 h) is 0/4. Moreover, in data set [3] (4 h), the “6-Hz, number of mice protected/number of mice tested, 4 h” value was 0/4. Further, the minimal effective dose in data set [1] (setting [4]) was greater than 300 mg/kg. For the same compound, the minimal effective dose in data set [1] (setting [5]) was greater than 300 mg/kg. The minimal effective dose in data set [2] (setting [6]) amounted to 100 mg/kg. Besides, in data set [2] (setting [7]), the minimal effective dose was greater than 300 mg/kg.
As to `O=C(CN1CCN(c2ccccc2)CC1)Nc1cccc(C(F)(F)F)c1` [Compound 14, 2-(4-Phenylpiperazin-1-yl)-N-[3-(trifluoromethyl)phenyl]acetamide], the minimal effective dose in data set [1] (setting [4]) is greater than 300 mg/kg; in data set [1] (setting [5]), greater than 300 mg/kg; in data set [2] (setting [6]), greater than 300 mg/kg; in data set [2] (setting [7]), 100 mg/kg. In addition, the “NT (rotarod), minimum dose neurotoxic … 0.5 h” value in the data set with mice (rotarod test) (male, CF#1, mouse, in vivo) is given as 300^Z mg/kg. In addition, the “NT (rotarod), minimum dose neurotoxic in half or more animals tested, 4 h” value with mice (rotarod test) (male, CF#1, mouse, in vivo, 4 h) was 300 mg/kg. In addition, the “dose showing neurotoxicity” value in the data set on mice (rotarod test) (male, CF#1, mouse, in vivo) came to 300 mg/kg. Besides, in the data set on mice (rotarod test) (mice, i.p., 300 mg/kg), the “response comment (adverse sign observed)” value is on record as “respiratory depression”.
As for `O=C(CN1CCN(c2cccc(Cl)c2Cl)CC1)Nc1cccc(C(F)(F)F)c1` [Compound 17, 2-[4-(2,3-Dichlorophenyl)piperazin-1-yl]-N-[3-(trifluoromethyl)phenyl]acetamide], the minimal effective dose in data set [1] (setting [4]), in data set [1] (setting [5]), in data set [2] (setting [6]) and in data set [2] (setting [7]) was greater than 300 mg/kg each time.
Take `Cl.O=C(CN1CCN(c2ccccc2F)CC1)Nc1cccc(C(F)(F)F)c1` [Compound 18, 2-[4-(2-Fluorophenyl)piperazin-1-yl]-N-[3-(trifluoromethyl)phenyl]acetamide monohydrochloride]: the minimal effective dose in data set [1] (setting [4]) was greater than 300 mg/kg; in data set [1] (setting [5]), greater than 300 mg/kg; in data set [2] (setting [6]), greater than 300 mg/kg; in data set [2] (setting [7]) it was 100 mg/kg.
Take `Cl.O=C(CN1CCN(c2ccc(F)cc2)CC1)Nc1cccc(C(F)(F)F)c1` [Compound 19, 2-[4-(4-Fluorophenyl)piperazin-1-yl]-N-[3-(trifluoromethyl)phenyl]acetamide monohydrochloride]: in data set [3] (4 h), the “6-Hz, % of animals protected, 4 h” value is reported as 25% and the “6-Hz, number of mice protected/number of mice tested, 4 h” value is reported as 1/4. In data set [3], the “6-Hz, number of mice protected/number of mice tested, 0.25 h” value is given as 0/4; the “6-Hz, number of mice protected/number of mice tested, 0.5 h” value is listed as 0/4; the “6-Hz, number of mice protected/number of mice tested, 2 h” value is on record as 0/4. Further, the “6-Hz, number of mice protected/number of mice tested, 1 h” value in data set [3] (1 h) is 0/4. In data set [1] (setting [4]), the minimal effective dose was greater than 300 mg/kg. Moreover, the minimal effective dose in data set [1] (setting [5]) was greater than 300 mg/kg. Besides, the minimal effective dose in data set [2] (setting [6]) was determined as 300 mg/kg. In data set [2] (setting [7]), the minimal effective dose turned out to be 100 mg/kg. In addition, in the data set on mice (rotarod test) (male, CF#1, mouse, in vivo), the “NT (rotarod), minimum dose neurotoxic … 0.5 h” value was found to be 300 mg/kg and the “dose showing neurotoxicity” value is given as 300 mg/kg.
Regarding `Cl.O=C(CN1CCN(c2ncccn2)CC1)Nc1cccc(C(F)(F)F)c1` [Compound 21, 2-(4-Pyrimidin-2-ylpiperazin-1-yl)-N-[3-(trifluoromethyl)phenyl]acetamide monohydrochloride], the minimal effective dose in data set [1] (setting [4]), in data set [1] (setting [5]), in data set [2] (setting [6]) and in data set [2] (setting [7]) was greater than 300 mg/kg throughout. Besides, the “NT (rotarod), minimum dose neurotoxic … 0.5 h” value in the data set with mice (rotarod test) (male, CF#1, mouse, in vivo) came to 300 mg/kg.
Take `Cl.Cl.O=C(CN1CCN(CCO)CC1)Nc1cccc(C(F)(F)F)c1` [Compound 23, 2-[4-(2-Hydroxyethyl)piperazin-1-yl]-N-[3-(trifluoromethyl)phenyl]acetamide dihydrochloride]: the minimal effective dose in data set [1] (setting [4]) was greater than 300 mg/kg; in data set [1] (setting [5]), greater than 300 mg/kg; in data set [2] (setting [6]), 300 mg/kg; in data set [2] (setting [7]), 300 mg/kg. Besides, the “NT (rotarod), minimum dose neurotoxic … 0.5 h” value in the data set on mice (rotarod test) (male, CF#1, mouse, in vivo) is on record as 300 mg/kg.
In the case of `Cl.O=C(CN1CCOCC1)Nc1cccc(C(F)(F)F)c1` [Compound 24, 2-Morpholino-N-[3-(trifluoromethyl)phenyl]acetamide monohydrochloride], in data set [3], the “6-Hz, % of animals protected, 0.25 h” value turned out to be 100%; the “6-Hz, % of animals protected, 0.5 h” value stood at 50%; the “6-Hz, number of mice protected/number of mice tested, 0.25 h” value is on record as 4/4; the “6-Hz, number of mice protected/number of mice tested, 0.5 h” value is listed as 2/4. Further, the “6-Hz, number of mice protected/number of mice tested, 2 h” value in data set [3] is given as 0/4. Further, in data set [3] (1 h), the “6-Hz, % of animals protected, 1 h” value came to 75% and the “6-Hz, number of mice protected/number of mice tested, 1 h” value is listed as 3/4. Besides, the “6-Hz, number of mice protected/number of mice tested, 4 h” value in data set [3] (4 h) is 0/4. In addition, in data set [1] (setting [4]), the minimal effective dose is greater than 300 mg/kg. For the same compound, in data set [1] (setting [5]), the minimal effective dose is greater than 300 mg/kg. Besides, the minimal effective dose in data set [2] (setting [6]) came to 100 mg/kg. Also, the minimal effective dose in data set [2] (setting [7]) was greater than 300 mg/kg. Besides, in the data set with mice (rotarod test) (male, CF#1, mouse, in vivo), the “NT (rotarod), minimum dose neurotoxic … 0.5 h” value is listed as 100 mg/kg and the “dose showing neurotoxicity” value stood at 100 mg/kg.
